# Molecular target: T1, hSK1 channels (Homo sapiens, UniProt Q92952)
# T1 construct: expressed in transfected cells; host or cells: HEK293
# Assay: Whole-cell patch-clamp recording of SK channel current in HEK293 cells expressing hSK1
# Format: cell-based
# Details: concentration required for decreasing the baseline current to 50% of the initial current
# Procedure: The ionic current through small-conductance Ca^2+-activated K^+ channels (SK channels, subtype 1) is recorded using the whole-cell configuration of the patch-clamp technique in a classic patch-clamp set-up using HEK293 tissue culture cells expressing hSK1 channels as described in e.g. WO 2006/100212.
# For inhibitors a Kd value, defined as the concentration required for decreasing the baseline current to 50% of the initial current, was estimated.
row,Kd,SMILES
1,< 0.1 µM,"CCCON=CNc1nc2nccc(C(C)Oc3ccc(C(C)(C)C)cc3)n2n1 (centres unmarked) [Example 2, N-{7-[1-(4-tert-Butylphenoxy)ethyl]-[1,2,4]triazolo[1,5-a]pyrimidin-2-yl}-N′-propyloxy-formamidine]"
2,> 3 µM,"CON=CNc1nc2nccc(C(C)Oc3ccc(C4CCCC4)cc3)n2n1 (centres unmarked) [Example 5, N-{7-[1-(4-cyclopentyl-phenoxy)ethyl]-[1,2,4]triazolo[1,5-a]pyrimidin-2-yl}-N′-methoxy-formamidine]"
3,0.1 to 1 µM,"CON=CNc1nc2nccc(C(C)(C)Oc3ccc(C(C)(C)C)cc3)n2n1 [Example 10, N-{7-[1-(4-tert-Butylphenoxy)-1-methyl-ethyl]-[1,2,4]triazolo[1,5-a]pyrimidin-2-yl}-N′-methoxy-formamidine]"
4,> 3 µM,"CON=CNc1nc2nccc(COc3ccc(C(C)(C)C)cc3)n2n1 [Example 4, N-[7-(4-tert-Butylphenoxymethyl)-[1,2,4]triazolo[1,5-a]pyrimidin-2-yl]-N′-methoxy-formamidine]"
5,> 3 µM,"CON=CNc1nc2nccc(C(C)Oc3ccc(C(C)C)cc3)n2n1 (centres unmarked) [Example 6, N-{7-[1-(4-Isopropylphenoxy)ethyl]-[1,2,4]triazolo[1,5-a]pyrimidin-2-yl}-N′-methoxy-formamidine]"
6,0.1 to 1 µM,"CC(Oc1ccc(C(C)(C)C)cc1)c1ccnc2nc(NC=NO)nn12 (centres unmarked) [Example 1, N-{7-[1-(4-tert-Butylphenoxy)ethyl]-[1,2,4]triazolo[1,5-a]pyrimidin-2-yl}-N′-hydroxy-formamidine]"
7,> 3 µM,"CC(C)ON=CNc1nc2nccc(C(C)Oc3ccc(C(C)(C)C)cc3)n2n1 (centres unmarked) [Example 3, N-{7-[1-(4-tert-Butylphenoxy)ethyl]-[1,2,4]triazolo[1,5-a]pyrimidin-2-yl}-N′-isopropyloxy-formamidine]"
8,< 0.1 µM,"CON=CNc1nc2nccc(C(C)Oc3ccc(C(C)(C)C)cc3)n2n1 (centres unmarked) [Example A, N-{7-[1-(4-tert-Butylphenoxy)ethyl]-[1,2,4]triazolo[1,5-a]pyrimidin-2-yl}-N′-methoxy-formamidine]"

row,SMILES,Kd
1,"CON=CNc1nc2nccc(C(C)Oc3ccc(OC(C)(C)C)cc3)n2n1 (centres unmarked) [Example 9, N-{7-[1-(4-tert-Butoxy-phenoxy)ethyl]-[1,2,4]triazolo[1,5-a]pyrimidin-2-yl}-N′-methoxy-formamidine]",< 0.1 µM
2,"CCC(Oc1ccc(C(C)(C)C)cc1)c1ccnc2nc(NC=NOC)nn12 (centres unmarked) [Example 8, N-{7-[1-(4-tert-Butylphenoxy)propyl]-[1,2,4]triazolo[1,5-a]pyrimidin-2-yl}-N′-methoxy-formamidine]",< 0.1 µM
3,"CON=CNc1nc2nccc(C(C)Oc3ccc(C(C)(C)C)cc3C)n2n1 (centres unmarked) [Example 7, N-{7-[1-(4-tert-Butyl-2-methylphenoxy)ethyl]-[1,2,4]triazolo[1,5-a]pyrimidin-2-yl}-N′-methoxy-formamidine]",< 0.1 µM

# — patent US20120095025A1, “SUBSTITUTED [1,2,4]TRIAZOLO[1,5-a]PYRIMIDINES AND THEIR USE AS POTASSIUM CHANNEL MODULATORS” (NEUROSEARCH A/S, priority 2009, published 2012)
